{
  "source": "patent US11046647B2",
  "about": "“Activators of the unfolded protein response” (The Board of Trustees of the University of Illinois, priority 2018, dated 2021)",
  "key": {"MCF-7": {"tested_on": "MCF-7", "type": "cell-based", "protocol": "(§1) FIG. 36. Discovery of SERK-F6 (also known as, C(−)-105, (−)-105, (R)-105, (−)-1, or (R)-1), a compound that kills ERα-positive cancer cells, a, Chemical structures of BHPI and racemic compound 1 (i.e. (±)-1), and their cytotoxic activity on T47D breast cancer cells after 24-hour incubations with concentrations as indicated in nM. Cells were stained with annexin V-FITC and PI dyes prior to analysis via flow cytometry. […] Cells were incubated with SERK-F6 or positive control, Raptinal, for 24 hours and then stained with annexin V-FITC and PI dyes and analyzed via flow cytometry. Error bars represent S.E.M of 3 independent replicates. c, IC50 values of SERK-F6 after 24-hour incubation against a panel of cancer cell lines grouped by their reported ERα status. Cell viability was measured by Alamar blue fluorescence and set relative to a vehicle control and a quantitative dead control treated with Raptinal. Error bars represent S.E.M of 3 independent experiments. d, Crystal violet staining of T47D cells after 24-hour incubations with compounds and concentrations as indicated. Image is representative of 2 independent experiments. e,f, Long-term cell culture experiment with T47D, TDG, and TYS cells. Cells were incubated for 2 weeks with compounds (1 μM), followed by compound washout, and cells were cultured for 2 months. Cell number was determined by MTS. […]"}, "MDA-MB-231": {"tested_on": "MDA-MB-231", "type": "cell-based", "protocol": "as §1"}, "[1]": {"tested_on": "panel of cancer cell lines", "experiment": "Alamar blue 24-hour IC50 against a panel of cancer cell lines", "type": "cell-based", "conditions": "Homo sapiens, average", "protocol": "FIG. 36. Discovery of SERK-F6 (also known as, C(−)-105, (−)-105, (R)-105, (−)-1, or (R)-1), a compound that kills ERα-positive cancer cells, a, Chemical structures of BHPI and racemic compound 1 (i.e. (±)-1), and their cytotoxic activity on T47D breast cancer cells after 24-hour incubations with concentrations as indicated in nM. Cells were stained with annexin V-FITC and PI dyes prior to analysis via flow cytometry. […] Cells were incubated with SERK-F6 or positive control, Raptinal, for 24 hours and then stained with annexin V-FITC and PI dyes and analyzed via flow cytometry. […] Cell viability was measured by Alamar blue fluorescence and set relative to a vehicle control and a quantitative dead control treated with Raptinal. […] Cell number was determined by MTS.\nFIG. 40. […] Concentration was determined via LC/MS/MS analysis. […] Concentrations were determined via LC/MS/MS analysis. […]\nCell lines: ERα positive breast cancer: T47D, MCF-7 TYS (T47D Y537S) TDG (T47D D538G), BT-474; ERα negative MDA-MB-231 breast cancer cells; 6,000 cells/well were plated (96 well plate) in 100 μl of medium. […] After 2-4 hours fluorescence in the wells was read (λex: 555 nm, λem: 585 nm, Spectra Max M3 Plate reader). % relative death was determined by setting the reading for 10,000 nM raptinal-treated cells to 100% dead cells and the reading for vehicle-treated cells to 0% dead cells. […]"}, "TYS-Luc cells": {"tested_on": "TYS-Luc cells", "experiment": "Long-term cell culture experiment (treat 2 weeks, regrow 4 weeks), MTS, TYS-Luc", "type": "cell-based, human", "protocol": "To simulate the effect of several weeks of treatment of a tumor in a mouse xenograft, long-term cell culture experiments were performed. TYS-Luc cells (T47DERαY537S-Luc cells; ERαY537S is the most lethal ERα mutation seen in metastatic breast cancer) were plated at 4,000 cells/well in 96 well plates. […] After 2 weeks (medium change every 2 days) cell number was determined using MTS and a standard curve of absorbance versus cell number for TYS-Luc cells. Notes: (i) Bars denote the BHPI and (−)-105 arms of the experiment. No drug is present during regrow. […] This allows any surviving cells to regrow. After 4 weeks the cells were assayed using MTS. […] (Note: Visual inspection of the wells confirmed that there were no cells in the well treated for 2 weeks with active (−)-105.) To test whether the cells that regrew after BHPI treatment were resistant to BHPI they were re-treated for another cycle (BHPI Retreat) and shown to retain sensitivity to BHPI killing. (n=8 biological replicates ±SEM."}, "[2]": {"tested_on": "partially BHPI-resistant T47D clones 1,3,8, and 11", "experiment": "MTS growth assay, partially BHPI-resistant T47D clones", "type": "cell-based, human", "conditions": "100 nM and 1 μM; 4 days", "protocol": "ERα containing T47D human breast cancer cells able to survive in 1 μM BHPI were selected by clonal outgrowth. The effect of 100 nM and 1 μM BHPI and (−)-105 on growth of the (BHPI-sensitive) parental T47D cells and partially BHPI-resistant T47D clones 1,3,8, and 11 was evaluated. 4,000 cells/well were plated. Cell number was determined by MTS assay from a standard curve of absorbance versus cell number. […] Thus, in 4 days (−)-105 killed some, but not all, of the resistant cells."}, "[3]": {"experiment": "Pharmacokinetics, brain penetration and tolerability in mice", "type": "in vivo, mouse", "protocol": "FIG. 40. SERK-F6 is tolerated, reaches biologically relevant concentrations, and crosses the blood-brain barrier in vivo. a, Serum concentrations of SERK-F6 after indicated doses, route of administration, and time. Concentration was determined via LC/MS/MS analysis. […] AUC: Area Under the Curve, Cmax: maximum concentration, t1/2: half-life. c,d, Mice (CD-1) were treated with the indicated doses and times, then sacrificed and their serum and brains collected. Concentrations were determined via LC/MS/MS analysis. […] Treatment arms: vehicle daily (n=3), vehicle weekly (n=3), fulv. weekly (5 mg/mouse, s.c., n=6), SERK-F6 daily (10 or 40 mg/kg p.o.). Vehicle arms were combined. g, Mass of tumors harvested from mice. h, observed murine weight during this MCF-7 study (n=6). i,j, Tumor measurements for MCF-7 bilateral orthotopic model (n=4-5).\nThe pharmacokinetics of SERK-F6 was measured in mice (FIG. 40A-B)."}},
  "note": "pIC50: −log10 of the molar value.",
  "data": [
    {"smiles": "O=C1Nc2c(C(F)(F)F)cccc2C1(c1ccc(O)cc1)c1ccc(OC(F)(F)F)cc1", "note": "(single isomer, unassigned; (-)) [(−)-105, 3-(4-hydroxyphenyl)-3-(4-(trifluoromethoxy)phenyl)-7-(trifluoromethyl)indolin-2-one]", "values": [
      {"measurement": "cytotoxicity", "setting": "MCF-7", "value": "cytotoxic"},
      {"measurement": "cytotoxicity", "setting": "MDA-MB-231", "value": "minimal effects"},
      {"measurement": "pIC50", "setting": "[1]", "value": 7.38},
      {"measurement": "regrowth of cells after drug removal", "setting": "TYS-Luc cells; 1 μM for 2 weeks, then 4 weeks without drug", "value": "no regrowth"},
      {"measurement": "TYS-Luc cells killed", "setting": "TYS-Luc cells; 1 μM, 2 weeks treatment", "value": 100, "unit": "%"},
      {"measurement": "effect on growth / cell number", "setting": "[2]", "value": "completely blocked the growth of the resistant clones"},
      {"measurement": "blood-brain barrier penetration", "setting": "[3]; CD-1 mice, serum and brain LC/MS/MS", "value": "blood-brain barrier penetrant"},
      {"measurement": "effect on ERα tissues as measured by circulating estradiol levels", "setting": "[3]; long-term treatment", "value": "does not ablate ERα tissues"},
      {"measurement": "tolerability in vivo", "setting": "[3]; mouse, in vivo", "value": "well-tolerated"},
      {"measurement": "concentrations reached in vivo", "setting": "[3]; serum, LC/MS/MS", "value": "can achieve biologically relevant concentrations in-vivo"}
    ]}
  ]
}
